Experimental data reported in US10710978B2, “STK4 inhibitors for treatment of hematologic malignancies” (Dana-Farber Cancer Institute, Inc., priority 2015, dated 2020).
Read-outs that look alike come from different tables or passages of the source.

Legend:
Assay in all cases: KiNativ assay
Type in all cases: binding
[1] = target: ACK (Homo sapiens (Human), UniProt Q07912); conditions: H929 live cell
Protocol: (§1) Biochemical IC50s of the compounds of the present disclosure against various kinases were measured in a KiNativ assay. Compounds were screened in duplicate at 10 μM in H929 live cell. IC50 was measured via Mass spectroscopy (MS).

[2] = target: ATR (Homo sapiens (Human), UniProt Q13535); conditions: H929 live cell, read-out: inhibition (10 μM)
Protocol: as §1

[3] = test system: AurA, AurB, AurC; conditions: H929 live cell
Protocol: as §1

[4] = target: CDK2 (Homo sapiens (Human), UniProt P24941); conditions: H929 live cell
Protocol: as §1

[5] = target: CHK1 (Homo sapiens (Human), UniProt O14757); conditions: H929 live cell
Sequence of CHK1 (O14757 whole entry): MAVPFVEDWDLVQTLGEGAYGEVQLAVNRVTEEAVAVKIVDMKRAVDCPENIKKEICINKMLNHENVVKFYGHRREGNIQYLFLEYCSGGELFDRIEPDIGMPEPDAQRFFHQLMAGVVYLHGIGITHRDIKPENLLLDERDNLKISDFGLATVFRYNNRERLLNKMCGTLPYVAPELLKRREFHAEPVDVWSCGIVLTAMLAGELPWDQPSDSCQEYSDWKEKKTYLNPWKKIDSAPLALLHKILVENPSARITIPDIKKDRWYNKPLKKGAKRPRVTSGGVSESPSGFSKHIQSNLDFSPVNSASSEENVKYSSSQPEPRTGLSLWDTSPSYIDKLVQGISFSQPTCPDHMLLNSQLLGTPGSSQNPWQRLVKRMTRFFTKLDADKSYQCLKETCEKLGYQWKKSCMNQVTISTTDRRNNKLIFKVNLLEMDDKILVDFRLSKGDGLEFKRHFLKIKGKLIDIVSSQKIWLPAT
Protocol: as §1

[6] = target: CK1a (Homo sapiens (Human), UniProt P48729); conditions: H929 live cell
Sequence of CK1a (P48729 whole entry): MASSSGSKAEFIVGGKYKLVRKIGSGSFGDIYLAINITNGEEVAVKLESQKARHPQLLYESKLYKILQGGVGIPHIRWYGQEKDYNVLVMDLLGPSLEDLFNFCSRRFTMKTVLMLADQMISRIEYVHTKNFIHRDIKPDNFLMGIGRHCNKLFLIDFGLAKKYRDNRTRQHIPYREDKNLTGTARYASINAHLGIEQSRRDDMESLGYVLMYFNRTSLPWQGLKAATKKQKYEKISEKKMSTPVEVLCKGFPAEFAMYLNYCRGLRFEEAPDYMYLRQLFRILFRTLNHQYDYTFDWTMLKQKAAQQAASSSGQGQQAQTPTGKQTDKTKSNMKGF
Protocol: as §1

[7] = target: CK1g3 (Homo sapiens (Human), UniProt Q9Y6M4); conditions: H929 live cell
Protocol: as §1

[8] = target: Erk1 (Homo sapiens (Human), UniProt P27361); conditions: H929 live cell
Protocol: as §1

[9] = test system: FYN, SRC, YES; conditions: H929 live cell
Protocol: as §1

[10] = target: GCK (Homo sapiens (Human), UniProt Q12851); conditions: H929 live cell, read-out: inhibition (10 μM)
Protocol: as §1

[11] = target: LOK (Homo sapiens (Human), UniProt O94804); conditions: H929 live cell
Protocol: as §1

[12] = target: MAP2K1 (Homo sapiens (Human), UniProt Q02750); conditions: H929 live cell
Protocol: as §1

[13] = target: MAP2K4 (Homo sapiens (Human), UniProt P45985); conditions: H929 live cell
Protocol: as §1

[14] = test system: MAPKAPK2, MAPKAPK3; conditions: H929 live cell
Protocol: as §1

[15] = target: MASTL (Homo sapiens (Human), UniProt Q96GX5); conditions: H929 live cell
Protocol: as §1

[16] = test system: MST1, MST2; conditions: H929 live cell
Protocol: as §1

[17] = test system: MST4, YSK1; conditions: H929 live cell
Protocol: as §1

[18] = test system: MST4; conditions: H929 live cell
Protocol: as §1

[19] = target: NDR2 (Homo sapiens (Human), UniProt Q9Y2H1); conditions: H929 live cell
Protocol: as §1

[20] = target: NEK9 (Homo sapiens (Human), UniProt Q8TD19); conditions: H929 live cell
Sequence of NEK9 (Q8TD19 whole entry): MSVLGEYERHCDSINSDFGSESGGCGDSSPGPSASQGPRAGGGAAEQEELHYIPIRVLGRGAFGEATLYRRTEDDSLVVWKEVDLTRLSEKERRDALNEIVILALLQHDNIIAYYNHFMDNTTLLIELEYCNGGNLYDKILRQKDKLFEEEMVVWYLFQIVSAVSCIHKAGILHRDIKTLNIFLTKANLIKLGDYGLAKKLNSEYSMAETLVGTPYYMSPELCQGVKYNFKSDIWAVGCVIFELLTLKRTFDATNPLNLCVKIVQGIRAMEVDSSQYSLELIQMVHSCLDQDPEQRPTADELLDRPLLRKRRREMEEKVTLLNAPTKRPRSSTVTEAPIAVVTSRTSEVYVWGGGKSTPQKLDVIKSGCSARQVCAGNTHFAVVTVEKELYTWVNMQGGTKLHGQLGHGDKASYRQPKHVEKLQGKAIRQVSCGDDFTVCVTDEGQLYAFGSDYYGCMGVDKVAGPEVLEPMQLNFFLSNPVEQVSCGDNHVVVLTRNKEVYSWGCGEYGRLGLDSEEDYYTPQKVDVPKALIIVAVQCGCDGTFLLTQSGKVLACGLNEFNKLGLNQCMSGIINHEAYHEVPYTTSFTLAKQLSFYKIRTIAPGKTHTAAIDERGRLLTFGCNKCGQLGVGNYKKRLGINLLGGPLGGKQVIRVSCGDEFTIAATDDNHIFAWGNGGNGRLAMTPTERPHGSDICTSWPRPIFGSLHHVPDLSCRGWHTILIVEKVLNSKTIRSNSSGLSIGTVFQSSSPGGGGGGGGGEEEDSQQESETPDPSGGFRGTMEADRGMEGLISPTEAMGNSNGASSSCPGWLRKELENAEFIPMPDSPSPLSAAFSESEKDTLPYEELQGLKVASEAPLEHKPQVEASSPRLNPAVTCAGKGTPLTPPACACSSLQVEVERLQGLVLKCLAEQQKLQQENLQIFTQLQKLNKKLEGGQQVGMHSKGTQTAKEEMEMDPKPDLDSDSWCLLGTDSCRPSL
Protocol: as §1

[21] = target: PAN3 (Homo sapiens (Human), UniProt Q58A45); conditions: H929 live cell
Sequence of PAN3 (Q58A45 whole entry): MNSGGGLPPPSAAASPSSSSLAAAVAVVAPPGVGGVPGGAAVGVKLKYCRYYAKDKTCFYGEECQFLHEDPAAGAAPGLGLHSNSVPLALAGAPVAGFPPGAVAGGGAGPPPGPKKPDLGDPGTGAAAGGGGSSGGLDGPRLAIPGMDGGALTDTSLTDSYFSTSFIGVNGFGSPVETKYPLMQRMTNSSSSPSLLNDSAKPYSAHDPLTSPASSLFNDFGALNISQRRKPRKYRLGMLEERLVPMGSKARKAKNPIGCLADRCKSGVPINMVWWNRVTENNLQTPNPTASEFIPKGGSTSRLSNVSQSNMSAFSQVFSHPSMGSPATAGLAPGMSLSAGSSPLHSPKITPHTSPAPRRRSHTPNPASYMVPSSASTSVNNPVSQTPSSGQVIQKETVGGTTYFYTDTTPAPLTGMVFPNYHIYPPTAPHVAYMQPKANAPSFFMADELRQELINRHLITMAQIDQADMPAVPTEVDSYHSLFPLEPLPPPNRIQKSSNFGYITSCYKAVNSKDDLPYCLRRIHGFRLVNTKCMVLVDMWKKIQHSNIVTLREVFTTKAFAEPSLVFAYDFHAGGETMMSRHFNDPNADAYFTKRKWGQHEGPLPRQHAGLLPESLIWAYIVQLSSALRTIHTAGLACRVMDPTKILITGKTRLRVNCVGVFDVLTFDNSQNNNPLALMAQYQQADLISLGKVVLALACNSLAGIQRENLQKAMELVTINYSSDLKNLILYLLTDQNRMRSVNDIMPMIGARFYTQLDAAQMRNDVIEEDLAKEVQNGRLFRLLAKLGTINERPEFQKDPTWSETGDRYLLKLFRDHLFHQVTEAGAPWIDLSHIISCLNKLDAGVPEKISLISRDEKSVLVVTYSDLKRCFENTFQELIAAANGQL
Protocol: as §1

[22] = target: PIP4K2C (Homo sapiens (Human), UniProt Q8TBX8); conditions: H929 live cell
Sequence of PIP4K2C (Q8TBX8 whole entry): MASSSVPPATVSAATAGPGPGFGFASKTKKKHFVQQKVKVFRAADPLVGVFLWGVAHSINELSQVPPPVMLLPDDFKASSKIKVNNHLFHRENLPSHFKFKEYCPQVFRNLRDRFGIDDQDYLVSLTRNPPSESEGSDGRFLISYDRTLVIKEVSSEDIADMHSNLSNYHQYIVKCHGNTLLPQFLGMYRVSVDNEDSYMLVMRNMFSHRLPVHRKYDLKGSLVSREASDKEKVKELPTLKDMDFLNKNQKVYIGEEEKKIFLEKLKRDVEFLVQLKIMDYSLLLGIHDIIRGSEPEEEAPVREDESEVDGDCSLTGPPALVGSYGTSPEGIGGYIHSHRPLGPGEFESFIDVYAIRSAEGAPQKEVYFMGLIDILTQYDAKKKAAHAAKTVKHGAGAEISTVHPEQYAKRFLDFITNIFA
Protocol: as §1

[23] = target: PIP5K3 (Homo sapiens (Human), UniProt Q9Y2I7); conditions: H929 live cell
Protocol: as §1

[24] = test system: PITSLRE; conditions: H929 live cell
Protocol: as §1

[25] = target: PKN1 (Homo sapiens (Human), UniProt Q16512); conditions: H929 live cell
Protocol: as §1

[26] = test system: RSK1 domain1, RSK2 domain1, RSK3 domain1; conditions: H929 live cell
Protocol: as §1

[27] = target: RSK2 domain1 (Homo sapiens (Human), UniProt P51812); conditions: H929 live cell
Protocol: as §1

[28] = target: RSK2 domain2 (Homo sapiens (Human), UniProt P51812); conditions: H929 live cell
Protocol: as §1

[29] = target: RSKL1 (Homo sapiens (Human), UniProt Q96S38); conditions: H929 live cell
Protocol: as §1

[30] = target: SRPK2 (Homo sapiens (Human), UniProt P78362); conditions: H929 live cell
Protocol: as §1

[31] = target: STLK6 (Homo sapiens (Human), UniProt Q9C0K7); conditions: H929 live cell
Protocol: as §1

[32] = target: TAO2 (Homo sapiens (Human), UniProt Q9UL54); conditions: H929 live cell
Sequence of TAO2 (Q9UL54 whole entry): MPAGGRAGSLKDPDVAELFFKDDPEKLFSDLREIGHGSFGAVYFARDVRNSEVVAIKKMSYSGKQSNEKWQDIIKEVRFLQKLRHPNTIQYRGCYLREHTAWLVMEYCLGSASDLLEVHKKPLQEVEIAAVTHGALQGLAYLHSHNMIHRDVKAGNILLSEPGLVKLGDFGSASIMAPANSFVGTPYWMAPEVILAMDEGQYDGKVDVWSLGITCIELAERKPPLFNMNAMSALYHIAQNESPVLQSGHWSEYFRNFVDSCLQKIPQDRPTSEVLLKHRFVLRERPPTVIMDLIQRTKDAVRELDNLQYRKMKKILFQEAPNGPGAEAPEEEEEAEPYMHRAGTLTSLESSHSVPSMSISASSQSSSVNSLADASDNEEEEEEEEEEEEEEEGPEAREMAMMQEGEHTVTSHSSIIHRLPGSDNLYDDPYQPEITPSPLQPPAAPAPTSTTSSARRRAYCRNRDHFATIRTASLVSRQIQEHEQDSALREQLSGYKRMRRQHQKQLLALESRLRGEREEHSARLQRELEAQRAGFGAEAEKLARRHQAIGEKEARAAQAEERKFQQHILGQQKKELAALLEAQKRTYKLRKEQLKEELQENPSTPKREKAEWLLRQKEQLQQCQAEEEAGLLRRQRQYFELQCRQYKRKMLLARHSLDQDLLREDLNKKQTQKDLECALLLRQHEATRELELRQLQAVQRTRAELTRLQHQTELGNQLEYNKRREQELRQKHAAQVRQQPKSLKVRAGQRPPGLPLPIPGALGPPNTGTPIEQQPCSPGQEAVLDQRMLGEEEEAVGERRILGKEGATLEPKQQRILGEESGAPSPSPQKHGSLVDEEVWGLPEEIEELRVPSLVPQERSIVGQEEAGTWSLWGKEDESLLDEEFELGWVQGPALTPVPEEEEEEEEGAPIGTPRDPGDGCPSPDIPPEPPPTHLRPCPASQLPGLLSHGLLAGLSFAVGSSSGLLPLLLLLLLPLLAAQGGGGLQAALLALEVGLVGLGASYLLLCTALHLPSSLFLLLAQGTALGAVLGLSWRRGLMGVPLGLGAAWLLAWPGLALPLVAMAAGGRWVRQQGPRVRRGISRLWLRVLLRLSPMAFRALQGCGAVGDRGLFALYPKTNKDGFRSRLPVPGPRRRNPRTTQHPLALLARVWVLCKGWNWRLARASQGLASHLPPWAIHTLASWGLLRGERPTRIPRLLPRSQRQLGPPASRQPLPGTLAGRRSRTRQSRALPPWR
Protocol: as §1

[33] = target: TBK1 (Homo sapiens (Human), UniProt Q9UHD2); conditions: H929 live cell
Sequence of TBK1 (Q9UHD2 whole entry): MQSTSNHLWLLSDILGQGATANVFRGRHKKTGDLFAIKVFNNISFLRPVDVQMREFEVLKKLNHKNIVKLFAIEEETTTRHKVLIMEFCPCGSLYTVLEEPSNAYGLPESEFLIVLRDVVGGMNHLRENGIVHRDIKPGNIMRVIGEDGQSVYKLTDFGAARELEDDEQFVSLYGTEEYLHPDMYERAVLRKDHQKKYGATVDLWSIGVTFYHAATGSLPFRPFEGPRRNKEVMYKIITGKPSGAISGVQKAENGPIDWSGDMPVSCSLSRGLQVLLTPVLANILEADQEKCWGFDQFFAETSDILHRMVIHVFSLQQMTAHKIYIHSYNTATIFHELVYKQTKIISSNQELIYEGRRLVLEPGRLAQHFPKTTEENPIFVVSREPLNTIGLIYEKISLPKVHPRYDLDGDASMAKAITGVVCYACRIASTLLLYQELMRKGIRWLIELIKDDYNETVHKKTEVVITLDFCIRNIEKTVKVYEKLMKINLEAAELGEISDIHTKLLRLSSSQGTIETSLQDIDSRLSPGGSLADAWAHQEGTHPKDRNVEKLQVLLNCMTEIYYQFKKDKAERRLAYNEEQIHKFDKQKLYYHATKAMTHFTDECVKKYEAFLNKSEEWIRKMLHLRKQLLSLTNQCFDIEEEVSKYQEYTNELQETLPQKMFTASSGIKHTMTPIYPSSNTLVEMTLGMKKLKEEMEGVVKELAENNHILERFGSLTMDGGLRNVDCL
Protocol: as §1

[34] = target: TLK2 (Homo sapiens (Human), UniProt Q86UE8); conditions: H929 live cell
Protocol: as §1

SMILES: Nc1ncc(-c2cccc([N+](=O)[O-])c2F)cc1-c1ccc2c(c1)CCNC2=O [Compound I-9, 6-(2-amino-5-(2-fluoro-3-nitrophenyl)pyridin-3-yl)-3,4-dihydroisoquinolin-1(2H)-one]
- inhibition at 10 µM ([1]; read-out: % inhibition (range)): 0%
- inhibition at 10 µM ([1]; read-out: inhibition (10 μM)): -17.3%
- inhibition at 10 µM [2]: 37.5%
- % inhibition (range) ([3]; 10 μM): 50-75%
- inhibition (10 μM) [3]: 66.2%
- inhibition at 10 µM ([4]; read-out: % inhibition (range)): 50 to 75%
- inhibition at 10 µM ([4]; read-out: inhibition (10 μM)): 68.5%
- inhibition at 10 µM ([5]; read-out: % inhibition (range)): 0%
- inhibition at 10 µM ([5]; read-out: inhibition (10 μM)): 14.9%
- inhibition at 10 µM ([6]; read-out: % inhibition (range)): 75 to 90%
- inhibition at 10 µM ([6]; read-out: inhibition (10 μM)): 84.6%
- inhibition at 10 µM ([7]; read-out: % inhibition (range)): > 90%
- inhibition at 10 µM ([7]; read-out: inhibition (10 μM)): 93%
- inhibition at 10 µM ([8]; read-out: % inhibition (range)): 50 to 75%
- inhibition at 10 µM ([8]; read-out: inhibition (10 μM)): 50.5%
- % inhibition (range) ([9]; 10 μM): 0.0%
- inhibition (10 μM) [9]: 28.3%
- inhibition at 10 µM [10]: 91.5%
- inhibition at 10 µM ([11]; read-out: % inhibition (range)): > 90%
- inhibition at 10 µM ([11]; read-out: inhibition (10 μM)): 98.5%
- inhibition at 10 µM ([12]; read-out: % inhibition (range)): 0%
- inhibition at 10 µM ([12]; read-out: inhibition (10 μM)): -55.8%
- inhibition at 10 µM ([13]; read-out: % inhibition (range)): 50 to 75%
- inhibition at 10 µM ([13]; read-out: inhibition (10 μM)): 72.9%
- % inhibition (range) ([14]; 10 μM): 0.0%
- inhibition (10 μM) [14]: 4.0%
- inhibition at 10 µM ([15]; read-out: % inhibition (range)): 0%
- inhibition at 10 µM ([15]; read-out: inhibition (10 μM)): -18.4%
- % inhibition (range) ([16]; 10 μM): >90%
- inhibition (10 μM) [16]: 99.0%
- % inhibition (range) ([17]; 10 μM): 0.0%
- inhibition (10 μM) [17]: 33.0%
- inhibition (10 μM) [18]: 47.0%
- inhibition at 10 µM ([19]; read-out: % inhibition (range)): 0%
- inhibition at 10 µM ([19]; read-out: inhibition (10 μM)): -9.5%
- inhibition at 10 µM ([20]; read-out: % inhibition (range)): 0%
- inhibition at 10 µM ([20]; read-out: inhibition (10 μM)): -38.3%
- inhibition at 10 µM ([21]; read-out: % inhibition (range)): 0%
- inhibition at 10 µM ([21]; read-out: inhibition (10 μM)): -7.1%
- inhibition at 10 µM ([22]; read-out: % inhibition (range)): 50 to 75%
- inhibition at 10 µM ([22]; read-out: inhibition (10 μM)): 65.7%
- inhibition at 10 µM ([23]; read-out: % inhibition (range)): > 90%
- inhibition at 10 µM ([23]; read-out: inhibition (10 μM)): 92%
- % inhibition (range) ([24]; 10 μM): 35-50%
- inhibition (10 μM) [24]: 38.9%
- inhibition at 10 µM ([25]; read-out: % inhibition (range)): 50 to 75%
- inhibition at 10 µM ([25]; read-out: inhibition (10 μM)): 56.9%
- % inhibition (range) ([26]; 10 μM): 50-75%
- inhibition (10 μM) [26]: 58.7%
- inhibition at 10 µM ([27]; read-out: % inhibition (range)): 50 to 75%
- inhibition at 10 µM ([27]; read-out: inhibition (10 μM)): 69.9%
- inhibition at 10 µM ([28]; read-out: % inhibition (range)): 0%
- inhibition at 10 µM ([28]; read-out: inhibition (10 μM)): -23.2%
- inhibition at 10 µM ([29]; read-out: % inhibition (range)): 0%
- inhibition at 10 µM ([29]; read-out: inhibition (10 μM)): 0.2%
- inhibition at 10 µM ([30]; read-out: % inhibition (range)): 0%
- inhibition at 10 µM ([30]; read-out: inhibition (10 μM)): 18.9%
- inhibition at 10 µM ([31]; read-out: % inhibition (range)): 0%
- inhibition at 10 µM ([31]; read-out: inhibition (10 μM)): -47.7%
- inhibition at 10 µM ([32]; read-out: % inhibition (range)): 35 to 50%
- inhibition at 10 µM ([32]; read-out: inhibition (10 μM)): 35.3%
- inhibition at 10 µM ([33]; read-out: % inhibition (range)): 0%
- inhibition at 10 µM ([33]; read-out: inhibition (10 μM)): 23.7%
- inhibition at 10 µM ([34]; read-out: % inhibition (range)): 0%
- inhibition at 10 µM ([34]; read-out: inhibition (10 μM)): 34%
